From US20230085307A1, “PYRIDAZINONE COMPOUND AND HERBICIDE” (NISSAN CHEMICAL CORPORATION, priority 2019, published 2023)

How the values were obtained:
[1] = system: late watergrass; test: Test Example 1: herbicidal activity, application before weed generation under submerged conditions (Table 16, symbol A); type: in vivo, late watergrass (Echinochloa oryzicola)
How it was run: (§1)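 Alluvial soil was flooded to 4 cm depth, weed seeds were sown mixed and 2.5-leaf rice seedlings were transplanted. On sowing day, the compound's emulsion, diluted in water to a set dose, was applied to the water surface. Plants grew at 25–30 °C and were scored 0–5 after three weeks.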

[2] = system: persian speedwell; test: Test Example 5: herbicidal effect by foliage application, plastic box (Table 20, symbol R); type: in vivo, Persian speedwell (Veronica persica); settings: foliage application, 320 g/ha, three weeks after application
How it was run: (§2)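 Foliar spray test: emulsion formulation diluted in water to a set application rate, sprayed onto 14-day-old plants raised in diluvial soil at 25° C to 30° C under glass. Both herbicidal effect and crop effect rated visually three weeks later.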

[3] = system: wild oat; test: Test Example 5: herbicidal effect by foliage application, plastic box (Table 20, symbol I); type: in vivo, wild oat (Avena fatua); settings: foliage application, 320 g/ha, three weeks after application
How it was run: as §2

[4] = system: southern crabgrass; test: Test Example 4: herbicidal effect by soil treatment (Table 19, symbol F); type: in vivo, southern crabgrass (Digitaria ciliaris); settings: amount of applied herbicide 320 g/ha
How it was run: (§3)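 Step 1: sow seeds in sterilized diluvial soil, cover ~1.5 cm. Step 2: spray diluted emulsion onto soil surface at predetermined rate. Step 3: greenhouse, 25–30° C, three weeks. Step 4: grade effect on each plant by earlier criteria.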

[5] = system: wild oat; test: Test Example 4: herbicidal effect by soil treatment (Table 19, symbol I); type: in vivo, wild oat (Avena fatua); settings: amount of applied herbicide 320 g/ha
How it was run: as §3

[6] = system: green foxtail; test: Test Example 4: herbicidal effect by soil treatment (Table 19, symbol G); type: in vivo, green foxtail (Setaria viridis); settings: amount of applied herbicide 320 g/ha
How it was run: as §3

[7] = system: windgrass; test: Test Example 5: herbicidal effect by foliage application, plastic box (Table 20, symbol L); type: in vivo, windgrass (Apera spica-venti); settings: foliage application, 320 g/ha, three weeks after application
How it was run: as §2

[8] = system: blackgrass; test: Test Example 4: herbicidal effect by soil treatment (Table 19, symbol J); type: in vivo, blackgrass (Alopecurus myosuroides); settings: amount of applied herbicide 320 g/ha
How it was run: as §3

[9] = system: blackgrass; test: Test Example 5: herbicidal effect by foliage application, plastic box (Table 20, symbol J); type: in vivo, blackgrass (Alopecurus myosuroides); settings: foliage application, 320 g/ha, three weeks after application
How it was run: as §2

[10] = system: Japanese bulrush; test: Test Example 1: herbicidal activity, application before weed generation under submerged conditions (Table 16, symbol B); type: in vivo, Japanese bulrush (Schoenoplectus juncoides)
How it was run: as §1

[11] = system: velvetleaf; test: Test Example 5: herbicidal effect by foliage application, plastic box (Table 20, symbol M); type: in vivo, velvetleaf (Abutilon theophrasti); settings: foliage application, 320 g/ha, three weeks after application
How it was run: as §2

[12] = system: Italian ryegrass; test: Test Example 4: herbicidal effect by soil treatment (Table 19, symbol K); type: in vivo, Italian ryegrass (Lolium multiflorum); settings: amount of applied herbicide 320 g/ha
How it was run: as §3

[13] = system: Chinese sprangletop; test: Test Example 3: herbicidal effect by foliage application, Wagner pot (Table 18, symbol D); type: in vivo, chinese sprangletop (Leptochloa chinensis); settings: 320 g/ha
How it was run: (§4)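 Plants were sown in alluvial soil held under 0.1–0.5 cm standing water and grown 14 days in a greenhouse at 25–30 °C. An emulsifiable formulation, water-diluted to the set dose, was then sprayed onto the foliage, and effects were scored three weeks later using previously defined criteria.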

[14] = system: barnyard grass; test: Test Example 4: herbicidal effect by soil treatment (Table 19, symbol H); type: in vivo, barnyard grass (Echinochloa crus-galli); settings: amount of applied herbicide 320 g/ha
How it was run: as §3

[15] = system: lambsquarters; test: Test Example 4: herbicidal effect by soil treatment (Table 19, symbol O); type: in vivo, lambsquarters (Chenopodium album); settings: amount of applied herbicide 320 g/ha
How it was run: as §3

[16] = system: rice flat sedge; test: Test Example 3: herbicidal effect by foliage application, Wagner pot (Table 18, symbol E); type: in vivo, rice flat sedge (Cyperus iria); settings: 320 g/ha
How it was run: as §4

[17] = system: redroot pigweed; test: Test Example 4: herbicidal effect by soil treatment (Table 19, symbol N); type: in vivo, redroot pigweed (Amaranthus retroflexus); settings: amount of applied herbicide 320 g/ha
How it was run: as §3

[18] = system: green foxtail; test: Test Example 5: herbicidal effect by foliage application, plastic box (Table 20, symbol G); type: in vivo, green foxtail (Setaria viridis); settings: foliage application, 320 g/ha, three weeks after application
How it was run: as §2

[19] = system: chickweed; test: Test Example 4: herbicidal effect by soil treatment (Table 19, symbol P); type: in vivo, common chickweed (Stellaria media); settings: amount of applied herbicide 320 g/ha
How it was run: as §3

[20] = system: barnyard grass; test: Test Example 5: herbicidal effect by foliage application, plastic box (Table 20, symbol H); type: in vivo, barnyard grass (Echinochloa crus-galli); settings: foliage application, 320 g/ha, three weeks after application
How it was run: as §2

[21] = system: oval-leafed pondweed; test: Test Example 1: herbicidal activity, application before weed generation under submerged conditions (Table 16, symbol C); type: in vivo, oval-leafed pondweed (Monochoria vaginalis)
How it was run: as §1

[22] = system: velvetleaf; test: Test Example 4: herbicidal effect by soil treatment (Table 19, symbol M); type: in vivo, velvetleaf (Abutilon theophrasti); settings: amount of applied herbicide 320 g/ha
How it was run: as §3

[23] = system: lambsquarters; test: Test Example 5: herbicidal effect by foliage application, plastic box (Table 20, symbol O); type: in vivo, lambsquarters (Chenopodium album); settings: foliage application, 320 g/ha, three weeks after application
How it was run: as §2

[24] = system: Italian ryegrass; test: Test Example 5: herbicidal effect by foliage application, plastic box (Table 20, symbol K); type: in vivo, Italian ryegrass (Lolium multiflorum); settings: foliage application, 320 g/ha, three weeks after application
How it was run: as §2

[25] = system: persian speedwell; test: Test Example 4: herbicidal effect by soil treatment (Table 19, symbol R); type: in vivo, Persian speedwell (Veronica persica); settings: amount of applied herbicide 320 g/ha
How it was run: as §3

[26] = system: southern crabgrass; test: Test Example 5: herbicidal effect by foliage application, plastic box (Table 20, symbol F); type: in vivo, southern crabgrass (Digitaria ciliaris); settings: foliage application, 320 g/ha, three weeks after application
How it was run: as §2

[27] = system: barnyard grass; test: Test Example 3: herbicidal effect by foliage application, Wagner pot (Table 18, symbol H); type: in vivo, barnyard grass (Echinochloa crus-galli); settings: 320 g/ha
How it was run: as §4

[28] = system: chickweed; test: Test Example 5: herbicidal effect by foliage application, plastic box (Table 20, symbol P); type: in vivo, common chickweed (Stellaria media); settings: foliage application, 320 g/ha, three weeks after application
How it was run: as §2

[29] = system: redroot pigweed; test: Test Example 5: herbicidal effect by foliage application, plastic box (Table 20, symbol N); type: in vivo, redroot pigweed (Amaranthus retroflexus); settings: foliage application, 320 g/ha, three weeks after application
How it was run: as §2

[30] = amount of applied herbicide 320 g/ha

COc1cc2sc(-c3ccccc3OC)c(-c3c(O)c(C)nn(C)c3=O)c2cc1F [5-064]
Herbicidal effect, A: late watergrass [1, 30]: 2 (Herbicidal rate of 20% or more and less than 40%)
herbicidal effect on persian speedwell (R) [2]: 5 (Herbicidal rate of 90% or more (almost completely withered))
herbicidal effect on wild oat (I) [3]: 4 (Herbicidal rate of 70% or more and less than 90%)
F: southern crabgrass, herbicidal effect grade [4]: 3 (Herbicidal rate of 40% or more and less than 70%)
I: wild oat, herbicidal effect grade [5]: 0 (Herbicidal rate of 5% or less (almost no effect))
G: green foxtail, herbicidal effect grade [6]: 4 (Herbicidal rate of 70% or more and less than 90%)
herbicidal effect on windgrass (L) [7]: 5 (Herbicidal rate of 90% or more (almost completely withered))
J: blackgrass, herbicidal effect grade [8]: 1 (Herbicidal rate of 5% or more and less than 20%)
herbicidal effect on blackgrass (J) [9]: 4 (Herbicidal rate of 70% or more and less than 90%)
Herbicidal effect, B: Japanese bulrush [10, 30]: 0 (Herbicidal rate of 5% or less (almost no effect))
herbicidal effect on velvetleaf (M) [11]: 4 (Herbicidal rate of 70% or more and less than 90%)
K: Italian ryegrass, herbicidal effect grade [12]: 0 (Herbicidal rate of 5% or less (almost no effect))
herbicidal effect on Chinese sprangletop (D) [13]: 2 (Herbicidal rate of 20% or more and less than 40%)
H: barnyard grass, herbicidal effect grade [14]: 4 (Herbicidal rate of 70% or more and less than 90%)
O: lambsquarters, herbicidal effect grade [15]: 3 (Herbicidal rate of 40% or more and less than 70%)
herbicidal effect on rice flat sedge (E) [16]: 5 (Herbicidal rate of 90% or more (almost completely withered))
N: redroot pigweed, herbicidal effect grade [17]: 4 (Herbicidal rate of 70% or more and less than 90%)
herbicidal effect on green foxtail (G) [18]: 5 (Herbicidal rate of 90% or more (almost completely withered))
P: chickweed, herbicidal effect grade [19]: 4 (Herbicidal rate of 70% or more and less than 90%)
herbicidal effect on barnyard grass (H) [20]: 4 (Herbicidal rate of 70% or more and less than 90%)
Herbicidal effect, C: oval-leafed pondweed [21, 30]: 0 (Herbicidal rate of 5% or less (almost no effect))
M: velvetleaf, herbicidal effect grade [22]: 2 (Herbicidal rate of 20% or more and less than 40%)
herbicidal effect on lambsquarters (O) [23]: 3 (Herbicidal rate of 40% or more and less than 70%)
herbicidal effect on Italian ryegrass (K) [24]: 3 (Herbicidal rate of 40% or more and less than 70%)
R: persian speedwell, herbicidal effect grade [25]: 5 (Herbicidal rate of 90% or more (almost completely withered))
herbicidal effect on southern crabgrass (F) [26]: 4 (Herbicidal rate of 70% or more and less than 90%)
herbicidal effect on barnyard grass (H) [27]: 5 (Herbicidal rate of 90% or more (almost completely withered))

CCOc1ccccc1-c1sc2ccccc2c1-c1c(O)c(C)nn(C)c1=O [1-011]
Herbicidal effect on A: late watergrass (grade 0-5) ([1]; 320 g/ha applied herbicide): 5 (Herbicidal rate of 90% or more (almost completely withered))
herbicidal effect grade, R: persian speedwell [2]: 5 (Herbicidal rate of 90% or more (almost completely withered))
herbicidal effect grade, P: chickweed [28]: 5 (Herbicidal rate of 90% or more (almost completely withered))
herbicidal effect grade, I: wild oat [3]: 4 (Herbicidal rate of 70% or more and less than 90%)
herbicidal effect rating, F: southern crabgrass [4]: 3 (Herbicidal rate of 40% or more and less than 70%)
herbicidal effect rating, I: wild oat [5]: 2 (Herbicidal rate of 20% or more and less than 40%)
herbicidal effect rating, G: green foxtail [6]: 5 (Herbicidal rate of 90% or more (almost completely withered))
herbicidal effect grade, N: redroot pigweed [29]: 5 (Herbicidal rate of 90% or more (almost completely withered))
herbicidal effect grade, L: windgrass [7]: 4 (Herbicidal rate of 70% or more and less than 90%)
herbicidal effect rating, J: blackgrass [8]: 4 (Herbicidal rate of 70% or more and less than 90%)
herbicidal effect grade, J: blackgrass [9]: 5 (Herbicidal rate of 90% or more (almost completely withered))
Herbicidal effect on B: Japanese bulrush (grade 0-5) ([10]; 320 g/ha applied herbicide): 0 (Herbicidal rate of 5% or less (almost no effect))
herbicidal effect grade, M: velvetleaf [11]: 3 (Herbicidal rate of 40% or more and less than 70%)
herbicidal effect rating, K: Italian ryegrass [12]: 3 (Herbicidal rate of 40% or more and less than 70%)
herbicidal effect on D (Chinese sprangletop), rating 0-5 [13]: 3 (Herbicidal rate of 40% or more and less than 70%)
herbicidal effect rating, H: barnyard grass [14]: 5 (Herbicidal rate of 90% or more (almost completely withered))
herbicidal effect rating, O: lambsquarters [15]: 4 (Herbicidal rate of 70% or more and less than 90%)
herbicidal effect on E (rice flat sedge), rating 0-5 [16]: 5 (Herbicidal rate of 90% or more (almost completely withered))
herbicidal effect rating, N: redroot pigweed [17]: 4 (Herbicidal rate of 70% or more and less than 90%)
herbicidal effect grade, G: green foxtail [18]: 5 (Herbicidal rate of 90% or more (almost completely withered))
herbicidal effect rating, P: chickweed [19]: 5 (Herbicidal rate of 90% or more (almost completely withered))
herbicidal effect grade, H: barnyard grass [20]: 5 (Herbicidal rate of 90% or more (almost completely withered))
Herbicidal effect on C: oval-leafed pondweed (grade 0-5) ([21]; 320 g/ha applied herbicide): 0 (Herbicidal rate of 5% or less (almost no effect))
herbicidal effect rating, M: velvetleaf [22]: 0 (Herbicidal rate of 5% or less (almost no effect))
herbicidal effect grade, O: lambsquarters [23]: 2 (Herbicidal rate of 20% or more and less than 40%)
herbicidal effect grade, K: Italian ryegrass [24]: 4 (Herbicidal rate of 70% or more and less than 90%)
herbicidal effect rating, R: persian speedwell [25]: 5 (Herbicidal rate of 90% or more (almost completely withered))
herbicidal effect grade, F: southern crabgrass [26]: 5 (Herbicidal rate of 90% or more (almost completely withered))
herbicidal effect on H (barnyard grass), rating 0-5 [27]: 5 (Herbicidal rate of 90% or more (almost completely withered))
